Measurements reported in PubChem BioAssay AID330 (DTP/NCI, 2004).
Where “and” joins values, the source holds several entries; their conditions need not be identical. Equal entries are not always repeated. Toxic doses and inconclusive results are not listed. The calls were made as follows: active = survival T/C of 150% or more; inactive = T/C below 125% in these data.

Test system: P388 leukemia ip, CD2F1 mice, survival T/C
Test: NCI In Vivo Anticancer Drug Screen. Data for tumor model P388 Leukemia (intraperitoneal) in CD2F1 (CDF1) mice
Conditions: endpoint: median survival time, higher = longer survival
Method in brief: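 Mice carrying the transplanted tumor received test compound or vehicle. Survival was recorded in each group, and the value is the treated-group measurement divided by that of the vehicle-treated control group.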

[1] = dose: 60.0 mg/kg/injection, schedule: Q01DX005 (ip), vehicle: saline with Tween-80
[2] = dose: 120.0 mg/kg/injection, schedule: Q01DX005 (ip), vehicle: saline with Tween-80
[3] = dose: 240.0 mg/kg/injection, schedule: Q01DX005 (ip), vehicle: saline with Tween-80
[4] = dose: 50.0 mg/kg/injection, schedule: Q01DX005 (ip), vehicle: Klucel (hydroxypropylcellulose) (HPC)
[5] = dose: 100.0 mg/kg/injection, schedule: Q01DX005 (ip), vehicle: Klucel (hydroxypropylcellulose) (HPC)
[6] = dose: 200.0 mg/kg/injection, schedule: Q01DX005 (ip), vehicle: Klucel (hydroxypropylcellulose) (HPC)
[7] = dose: 2.5 mg/kg/injection, schedule: Q01DX009 (ip), vehicle: saline with Tween-80
[8] = dose: 5.0 mg/kg/injection, schedule: Q01DX009 (ip), vehicle: saline with Tween-80
[9] = dose: 25.0 mg/kg/injection, schedule: Q01DX005 (ip), vehicle: Klucel (hydroxypropylcellulose) (HPC)
[10] = dose: 50.0 mg/kg/injection, schedule: Q01DX005 (ip), vehicle: saline with Tween-80
[11] = dose: 100.0 mg/kg/injection, schedule: Q01DX005 (ip), vehicle: saline with Tween-80
[12] = dose: 200.0 mg/kg/injection, schedule: Q01DX005 (ip), vehicle: saline with Tween-80
[13] = dose: 100.0 mg/kg/injection, schedule: Q04DX002 (ip), vehicle: Klucel (hydroxypropylcellulose) (HPC)
[14] = dose: 200.0 mg/kg/injection, schedule: Q04DX002 (ip), vehicle: Klucel (hydroxypropylcellulose) (HPC)

Measured: T/C

Oc1ccc(C2COc3c(ccc(O)c3O)C2)cc1 (centres undefined)
inactive: [1] 98 % of control | [2] 100 % of control | [3] 101 % of control

COc1ccc2c(c1)C(O)NC(=O)O2 (centres undefined)
inactive: [4] 98 % of control | [5] 103 % of control | [6] 119 % of control

COc1ccc2c(c1)-c1c3c(cc4ccnc(c14)C2=O)OCO3
inactive: [7] 107 % of control | [8] 114 % of control | dose: 10.0 mg/kg/injection, schedule: Q01DX009 (ip), vehicle: saline with Tween-80 122 % of control

N/C(=N\OC(=O)Nc1ccc(CSc2ccc(Cl)cc2)o1)c1ccccn1
inactive: dose: 12.5 mg/kg/injection, schedule: Q01DX005 (ip), vehicle: Klucel (hydroxypropylcellulose) (HPC) 106 % of control and 109 % of control | [9] 107 % of control and 110 % of control | [4] 110 % of control and 114 % of control and 120 % of control | [5] 109 % of control and 111 % of control

O=C(O)CNC(=O)NC(Cc1ccccc1)C(=O)O (centres undefined)
inactive: [10] 105 % of control | [11] 105 % of control | [12] 93 % of control

CCOC(=O)c1c(C(=O)OCC)c(C)n(/N=N/n2c(C)c(C(=O)OCC)c(C(=O)OCC)c2C)c1C
inactive: [4] 103 % of control | [5] 87 % of control

Clc1ccc2c(c1)nc(-c1ccccn1)n2CCc1ccncc1
inactive: [9] 100 % of control | [4] 95 % of control | [5] 99 % of control | [6] 99 % of control

O=C(CC1(O)C(=O)Nc2ccccc21)c1cccc2ccccc12 (centres undefined)
inactive: [1] 110 % of control | [2] 113 % of control | [3] 103 % of control

O=[N+]([O-])c1ccc(-c2nc3ccc(F)cc3[nH]2)o1
inactive: [1] 101 % of control | [2] 97 % of control | [3] 104 % of control

CC[P+](c1ccccc1)(c1ccccc1)c1ccccc1
inactive: dose: 0.62 mg/kg/injection, schedule: Q01DX009 (ip), vehicle: saline with Tween-80 111 % of control | dose: 1.25 mg/kg/injection, schedule: Q01DX009 (ip), vehicle: saline with Tween-80 104 % of control | [7] 112 % of control | [8] 119 % of control

O=S1CCS(=O)C1c1ccccc1 (centres undefined)
inactive: dose: 50.0 mg/kg/injection, schedule: Q01DX005 (ip), vehicle: other 99 % of control | dose: 100.0 mg/kg/injection, schedule: Q01DX005 (ip), vehicle: other 103 % of control

Nc1cccc(C(=O)NCCNC(=O)c2cccc(N)c2O)c1O
inactive: [4] 98 % of control | [5] 97 % of control | [6] 95 % of control

CC(=O)N1CCNC(=O)/C1=C1\CCOC1=O
inactive: dose: 50.0 mg/kg/injection, schedule: Q01DX009 (ip), vehicle: saline with Tween-80 99 % of control | dose: 100.0 mg/kg/injection, schedule: Q01DX009 (ip), vehicle: saline with Tween-80 101 % of control | dose: 200.0 mg/kg/injection, schedule: Q01DX009 (ip), vehicle: saline with Tween-80 110 % of control

O=C1O[C@@H]2C3COC(O)[C@](O)(O3)[C@@H]2/C1=C\c1ccc(O)cc1 (some centres undefined)
inactive: dose: 4.0 mg/kg/injection, schedule: Q01DX005 (ip), vehicle: DMSO 115 % of control | dose: 8.0 mg/kg/injection, schedule: Q01DX005 (ip), vehicle: DMSO 109 % of control | dose: 16.0 mg/kg/injection, schedule: Q01DX005 (ip), vehicle: DMSO 113 % of control | dose: 32.0 mg/kg/injection, schedule: Q01DX005 (ip), vehicle: DMSO 113 % of control

COc1cc(OC)c2c(=O)c3ccc([N+](=O)[O-])cc3n(C)c2c1
inactive: dose: 100.0 mg/kg/injection, schedule: Q01DX001 (ip), vehicle: saline with Tween-80 100 % of control | dose: 200.0 mg/kg/injection, schedule: Q01DX001 (ip), vehicle: saline with Tween-80 100 % of control

O=c1[nH]cnc2nc(S(=O)(=O)F)[nH]c12
inactive: [10] 103 % of control | [11] 103 % of control | [12] 103 % of control

CCc1nc(N)nc(N)c1-c1ccc([N+](=O)[O-])cc1
inactive: [10] 108 % of control | [11] 108 % of control

CCOP(=O)(OCC)c1nc(Cl)nc(Cl)c1SC(F)(F)F
inactive: dose: 3.75 mg/kg/injection, schedule: Q01DX005 (ip), vehicle: saline with Tween-80 113 % of control | dose: 7.5 mg/kg/injection, schedule: Q01DX005 (ip), vehicle: saline with Tween-80 104 % of control | dose: 15.0 mg/kg/injection, schedule: Q01DX005 (ip), vehicle: saline with Tween-80 100 % of control

CN(C)C(=S)S(=O)(=O)CCCCCCS(=O)(=O)C(=S)N(C)C
inactive: dose: 50.0 mg/kg/injection, schedule: Q04DX002 (ip), vehicle: Klucel (hydroxypropylcellulose) (HPC) 102 % of control and 103 % of control | [13] 100 % of control and 110 % of control and 114 % of control | [14] 107 % of control and 111 % of control and 123 % of control | dose: 300.0 mg/kg/injection, schedule: Q04DX002 (ip), vehicle: Klucel (hydroxypropylcellulose) (HPC) 107 % of control and 109 % of control

COc1cc(/C=N/Nc2ccc([N+](=O)[O-])cc2)cc(OC)c1OC
inactive: dose: 100.0 mg/kg/injection, schedule: Q04DX003 (ip), vehicle: saline with Tween-80 95 % of control | dose: 400.0 mg/kg/injection, schedule: Q04DX003 (ip), vehicle: saline with Tween-80 87 % of control

O=C(Nc1ccc([N+](=O)[O-])cc1)c1c2ccccc2nc2ccccc12
inactive: dose: 50.0 mg/kg/injection, schedule: Q01DX005 (ip), vehicle: suspension in saline 92 % of control | dose: 100.0 mg/kg/injection, schedule: Q01DX005 (ip), vehicle: suspension in saline 100 % of control | dose: 200.0 mg/kg/injection, schedule: Q01DX005 (ip), vehicle: suspension in saline 104 % of control

O=C(O)/C(=N/NC(=O)c1ccccc1)c1ccccc1
inactive: [13] 98 % of control | [14] 98 % of control | dose: 400.0 mg/kg/injection, schedule: Q04DX002 (ip), vehicle: Klucel (hydroxypropylcellulose) (HPC) 92 % of control

Cc1ccc(-c2nnc(N)o2)cc1
inactive: [1] 100 % of control | [2] 100 % of control | [3] 99 % of control
